According to patent US12649751B2 (Arcus Biosciences, Inc., priority 2022, dated 2026):

target: HPK1 (Homo sapiens, UniProt Q92918); experiment: HPK1 Biochemical Assay (ADP-Glo luminescence; low ATP 10 μM or high ATP 200 μM); details: 2 nM HPK1, 10 μM ATP; read-out: Biochemical Potency (low ATP)
Procedure: Dose-response assays were performed in Corning® Low Volume 384-well assay plates containing 100 nL of 22 serial 2-fold compound dilutions. Wells containing DMSO alone were used as negative control. A kinase mixture (5 μL) containing 2 nM HPK1 (or 5 nM for high ATP assay) in assay buffer (50 mM Hepes pH 7.4, 10 mM MgCl2, 0.01% Brij-15, 0.01% bovine serum albumin, and 1 mM dithiothreitol) was added to the assay plates and incubated at 25° C. for 1 hour. Wells without HPK1 were used as positive control. A […] of 10 μM ATP (or 200 μM for high ATP) and 0.2 μg/μL […] was then added to the wells, resulting in a 10 μL total reaction volume. Following incubation of the assay plates at 25° C. for 1 hour, 10 μL of ADP-Glo reagent was added to the wells and the plates were incubated at 25° C. for a further 40 minutes (or 1 hour for high ATP assay). Finally, 20 μL of Kinase Detection Reagent was added, and the plates were incubated for another 30 minutes at 25° C. An Envision plate reader was then used to detect the luminescence signals. IC50 values were determined by fitting the data to a standard 4-parameter logistic equation. The results are summarized in the Biochemical Potency columns of Tables 4 and 5 below (Biochemical Potency (high ATP); Biochemical Potency (low ATP)).

Chain of HPK1 (Q92918 whole entry, species assumed): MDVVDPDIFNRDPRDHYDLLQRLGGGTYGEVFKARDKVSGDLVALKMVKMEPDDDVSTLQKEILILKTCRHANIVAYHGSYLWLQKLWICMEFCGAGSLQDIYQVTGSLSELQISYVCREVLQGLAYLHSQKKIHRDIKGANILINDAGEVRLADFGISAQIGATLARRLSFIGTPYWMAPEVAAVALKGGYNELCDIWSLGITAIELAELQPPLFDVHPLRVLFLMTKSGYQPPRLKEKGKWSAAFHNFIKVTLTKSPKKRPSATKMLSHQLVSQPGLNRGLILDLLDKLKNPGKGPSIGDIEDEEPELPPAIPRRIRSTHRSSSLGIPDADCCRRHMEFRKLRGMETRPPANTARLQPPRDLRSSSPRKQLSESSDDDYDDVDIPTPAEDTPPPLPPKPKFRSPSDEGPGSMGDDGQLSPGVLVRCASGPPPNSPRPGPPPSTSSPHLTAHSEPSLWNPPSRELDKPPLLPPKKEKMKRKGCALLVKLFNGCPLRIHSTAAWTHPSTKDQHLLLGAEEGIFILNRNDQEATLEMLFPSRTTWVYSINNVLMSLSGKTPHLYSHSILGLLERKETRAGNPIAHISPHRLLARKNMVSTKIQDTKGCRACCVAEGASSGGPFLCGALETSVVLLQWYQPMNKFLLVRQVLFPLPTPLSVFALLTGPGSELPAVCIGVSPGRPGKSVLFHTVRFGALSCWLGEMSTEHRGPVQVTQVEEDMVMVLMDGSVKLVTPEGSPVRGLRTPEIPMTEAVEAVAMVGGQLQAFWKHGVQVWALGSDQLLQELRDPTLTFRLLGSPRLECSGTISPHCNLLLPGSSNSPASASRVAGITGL

**Q.** Which IC50 does the source give for `C[C@H]1CCCN1c1nc2cc(Nc3ccc(C4CCOCC4)c(CN4CCCC4)n3)ncc2s1` [Example 230, N-{2-[(2S)-2-Methylpyrrolidin-1-yl]-[1,3]thiazolo[5,4-c]pyridin-6-yl}-5-(oxan-4-yl)-6-[(pyrrolidin-1-yl)methyl]pyridin-2-amine] here?
**A.** The IC50 was < 100 nM.

**Q.** `Cc1cc(Nc2cc3nc(-c4ncccc4C)sc3cn2)nc(OC2CCNCC2)c1` [Example 174, 4-Methyl-N-[2-(3-methylpyridin-2-yl)-[1,3]thiazolo[5,4-c]pyridin-6-yl]-6-(piperidin-4-yloxy)pyridin-2-amine] was tested. Which IC50 did it give?
**A.** The IC50 was < 100 nM.

**Q.** How did the IC50 turn out when `Cc1ccc(N2C[C@@H]3C[C@H]2CN3C)nc1Nc1cc2nc(-c3ncccc3C)sc2cn1` [Example 284, 3-methyl-6-[(1S,4S)-5-methyl-2,5-diazabicyclo[2.2.1]heptan-2-yl]-N-[2-(3-methylpyridin-2-yl)-[1,3]thiazolo[5,4-c]pyridin-6-yl]pyridin-2-amine] was run?
**A.** Its IC50 is 100 to 1000 nM.

**Q.** Which IC50 does the source give for `Cc1cc(Nc2cc3nc(-c4nccn4C)sc3cn2)nc(O[C@H]2CCNC2)c1` [Example 183, 4-Methyl-N-[2-(1-methyl-1H-imidazol-2-yl)-[1,3]thiazolo[5,4-c]pyridin-6-yl]-6-[(3S)-pyrrolidin-3-yloxy]pyridin-2-amine] here?
**A.** Its IC50 is < 100 nM.

**Q.** Which IC50 does the source give for `C[C@H]1CCC(=O)N1c1nc2cc(Nc3ccc(C4CCOCC4)c(CN4CCCC4)n3)ncc2s1` [Example 208, (5S)-5-Methyl-1-(6-{[5-(oxan-4-yl)-6-[(pyrrolidin-1-yl)methyl]pyridin-2-yl]amino}-[1,3]thiazolo[5,4-c]pyridin-2-yl)pyrrolidin-2-one] here?
**A.** Its IC50 is < 100 nM.

**Q.** For `Cc1cccnc1-c1nc2cc(Nc3cccc(N4C[C@H]5C[C@@H]4CN5C)n3)ncc2s1` [Example 91, 6-[(1R,4R)-5-Methyl-2,5-diazabicyclo[2.2.1]heptan-2-yl]-N-[2-(3-methylpyridin-2-yl)-[1,3]thiazolo[5,4-c]pyridin-6-yl]pyridin-2-amine], which IC50 is on record?
**A.** The IC50 was < 100 nM.

**Q.** `CN(C)C(=O)c1cccc(-c2nc3cc(Nc4nccc(N5C[C@@H]6C[C@H]5CN6C)n4)ncc3s2)c1` [Example 243, N,N-Dimethyl-3-[6-({4-[(1S,4S)-5-methyl-2,5-diazabicyclo[2.2.1]heptan-2-yl]pyrimidin-2-yl}amino)-[1,3]thiazolo[5,4-c]pyridin-2-yl]benzamide] was tested. Which IC50 did it give?
**A.** Its IC50 is 100 to 1000 nM.

**Q.** `Cc1cc(Nc2cc3nc(-c4ccncc4)sc3cn2)nc(O[C@H]2CCNC2)c1` [Example 166, 4-Methyl-N-[2-(pyridin-4-yl)-[1,3]thiazolo[5,4-c]pyridin-6-yl]-6-[(3S)-pyrrolidin-3-yloxy]pyridin-2-amine] was tested. Which IC50 did it give?
**A.** Its IC50 is < 100 nM.

**Q.** How did the IC50 turn out when `Cc1ccc(Nc2cc3nc(-c4cnn(C)c4)sc3cn2)nc1CN1CCCC1` [Example 51, 5-Methyl-N-[2-(1-methyl-1H-pyrazol-4-yl)-[1,3]thiazolo[5,4-c]pyridin-6-yl]-6-[(pyrrolidin-1-yl)methyl]pyridin-2-amine] was run?
**A.** The IC50 was < 100 nM.

**Q.** Which IC50 does the source give for `Cc1cc(Nc2cc3nc(-c4ccc(S(C)(=O)=O)cc4)sc3cn2)nc(O[C@H]2CCNC2)c1` [Example 186, N-[2-(4-Methanesulfonylphenyl)-[1,3]thiazolo[5,4-c]pyridin-6-yl]-4-methyl-6-[(3S)-pyrrolidin-3-yloxy]pyridin-2-amine] here?
**A.** The IC50 was < 100 nM.

**Q.** How did the IC50 turn out when `Cc1cccnc1-c1nc2cc(Nc3cc(N4C[C@@H]5C[C@H]4CN5)ccn3)ncc2s1` [Example 86, 4-[(1S,4S)-2,5-Diazabicyclo[2.2.1]heptan-2-yl]-N-[2-(3-methylpyridin-2-yl)-[1,3]thiazolo[5,4-c]pyridin-6-yl]pyridin-2-amine] was run?
**A.** Its IC50 is > 5000 nM.

**Q.** How did the IC50 turn out when `c1cc(-c2nc3cc(Nc4nccc(N5C[C@@H]6C[C@H]5CN6)n4)ncc3s2)ccn1` [Example 241, 4-[(1S,4S)-2,5-Diazabicyclo[2.2.1]heptan-2-yl]-N-[2-(pyridin-4-yl)-[1,3]thiazolo[5,4-c]pyridin-6-yl]pyrimidin-2-amine] was run?
**A.** Its IC50 is < 100 nM.

**Q.** For `Cc1cc(Nc2cc3nc(-c4ccncc4C)sc3cn2)nc(O[C@H]2CCNC2)c1` [Example 169, 4-Methyl-N-[2-(3-methylpyridin-4-yl)-[1,3]thiazolo[5,4-c]pyridin-6-yl]-6-[(3S)-pyrrolidin-3-yloxy]pyridin-2-amine], which IC50 is on record?
**A.** Its IC50 is < 100 nM.

**Q.** `CS(=O)(=O)Nc1cccc(-c2nc3cc(Nc4cccc(N5C[C@@H]6C[C@H]5CN6)n4)ncc3s2)c1` [Example 287, N-{3-[6-({6-[(1S,4S)-2,5-diazabicyclo[2.2.1]heptan-2-yl]pyridin-2-yl}amino)-[1,3]thiazolo[5,4-c]pyridin-2-yl]phenyl}methanesulfonamide] was tested. Which IC50 did it give?
**A.** The IC50 was < 100 nM.

**Q.** How did the IC50 turn out when `Cc1cccnc1-c1nc2cc(Nc3ccc(N4CCC(F)(F)C4)c(N4C[C@@H]5C[C@H]4CN5C)n3)ncc2s1` [Example 281, 5-(3,3-Difluoropyrrolidin-1-yl)-6-[(1S,4S)-5-methyl-2,5-diazabicyclo[2.2.1]heptan-2-yl]-N-[2-(3-methylpyridin-2-yl)-[1,3]thiazolo[5,4-c]pyridin-6-yl]pyridin-2-amine] was run?
**A.** The IC50 was < 100 nM.

**Q.** How did the IC50 turn out when `Cc1cc(Nc2cc3nc(-c4ccc(C#N)cc4)sc3cn2)nc(O[C@H]2CCNC2)c1` [Example 187, 4-(6-{[4-Methyl-6-(pyrrolidin-3-yloxy)pyridin-2-yl]amino}-[1,3]thiazolo[5,4-c]pyridin-2-yl)benzonitrile] was run?
**A.** The IC50 was < 100 nM.

**Q.** Which IC50 does the source give for `Cc1cc(Nc2cc3nc(-c4cccc(C)n4)sc3cn2)nc(O[C@H]2CCNC2)c1` [Example 163, 4-Methyl-N-[2-(6-methylpyridin-2-yl)-[1,3]thiazolo[5,4-c]pyridin-6-yl]-6-[(3S)-pyrrolidin-3-yloxy]pyridin-2-amine] here?
**A.** The IC50 was < 100 nM.

**Q.** `Cc1cc(Nc2cc3nc(N4CCC[C@H](O)C4)sc3cn2)nc(O[C@H]2CCNC2)c1` [Example 192, (3S)-1-(6-{[4-Methyl-6-((3S)-pyrrolidin-3-yloxy)pyridin-2-yl]amino}-[1,3]thiazolo[5,4-c]pyridin-2-yl)piperidin-3-ol] was tested. Which IC50 did it give?
**A.** The IC50 was < 100 nM.

**Q.** Which IC50 does the source give for `Cc1cccnc1-c1nc2cc(Nc3ccc(C4CCOCC4)c(N4C[C@@H]5C[C@H]4CN5)n3)ncc2s1` [Example 246, 6-[(1S,4S)-2,5-Diazabicyclo[2.2.1]heptan-2-yl]-N-[2-(3-methylpyridin-2-yl)-[1,3]thiazolo[5,4-c]pyridin-6-yl]-5-(oxan-4-yl)pyridin-2-amine] here?
**A.** The IC50 was < 100 nM.

**Q.** For `Cc1cc(Nc2cc3nc(-c4ccc(F)cc4)sc3cn2)nc(O[C@H]2CCNC2)c1` [Example 188, N-[2-(4-Fluorophenyl)-[1,3]thiazolo[5,4-c]pyridin-6-yl]-4-methyl-6-[(3S)-pyrrolidin-3-yloxy]pyridin-2-amine], which IC50 is on record?
**A.** The IC50 was < 100 nM.

same assay, conditions: HPK1 ADP-Glo assay, low ATP (10 μM ATP, 2 nM HPK1); read-out: Biochemical Potency (low ATP)

**Q.** How did the IC50 turn out when `CC(C)(O)c1cc(-c2nc3cc(Nc4cnc(C5CCOCC5)c(N5C[C@@H]6C[C@H]5CN6)n4)ncc3s2)ccn1` [Example 303, 2-{4-[6-({6-[(1S,4S)-2,5-diazabicyclo[2.2.1]heptan-2-yl]-5-(oxan-4-yl)pyrazin-2-yl}amino)-[1,3]thiazolo[5,4-c]pyridin-2-yl]pyridin-2-yl}propan-2-ol] was run?
**A.** The IC50 was < 100 nM.

**Q.** `CN(C)S(=O)(=O)c1cccc(-c2nc3cc(Nc4cccc(N5C[C@@H]6C[C@H]5CN6)n4)ncc3s2)c1` [Example 325] was tested. Which IC50 did it give?
**A.** Its IC50 is < 100 nM.

**Q.** Which IC50 does the source give for `CN1C[C@@H]2C[C@H]1CN2c1cncc(Nc2cc3nc(-c4cccc(C(C)(C)O)c4)sc3cn2)n1` [Example 418] here?
**A.** The IC50 was < 100 nM.

**Q.** `CN1C[C@@H]2C[C@H]1CN2c1cncc(Nc2cc3nc(-c4ncco4)sc3cn2)n1` [Example 421] was tested. Which IC50 did it give?
**A.** The IC50 was < 100 nM.
